Assay [1] has as its target Triosephosphate isomerase (G233D HsTIM) (Homo sapiens, UniProt P60174, G233D). Nature of the assay: coupled enzyme assay, Kmapp vs PEP at varied GAP. The format is biochemical.
The target of assay [2] is Triosephosphate isomerase (WT HsTIM) (Homo sapiens, UniProt P60174). Nature of the assay: coupled enzyme assay, Kmapp vs PEP at varied GAP. The format is biochemical.

The structures appear in SMILES notation.

Triosephosphate isomerase (WT HsTIM), sequence (P60174 2-249): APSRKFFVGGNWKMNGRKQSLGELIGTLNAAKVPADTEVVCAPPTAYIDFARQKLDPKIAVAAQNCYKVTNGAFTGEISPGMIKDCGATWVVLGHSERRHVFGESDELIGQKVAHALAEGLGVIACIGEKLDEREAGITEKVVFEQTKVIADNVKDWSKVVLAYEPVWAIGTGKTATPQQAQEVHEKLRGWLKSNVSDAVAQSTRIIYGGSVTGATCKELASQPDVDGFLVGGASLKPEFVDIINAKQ
Triosephosphate isomerase (G233D HsTIM), sequence (P60174 2-249 G233D): as the sequence (P60174 2-249) above, with G232D counted along it

The Ki is the dissociation constant of the complex between target and ligand, obtained from inhibition or displacement. Lower therefore signals tighter binding. Consider `C=C(OP(=O)(O)O)C(=O)O` [phosphoenolpyruvate], for which the results for the Ki in assay [1] and in assay [2] were 120 ± 5.2 µM and 123 ± 5 µM, respectively.

For the origin of these results see publication PMC5652080 (Current Enzyme Inhibition, 2015).
